Patent US20240124454A1, “TRICYCLIC COMPOUND AND USE THEREOF” (NANJING ZAIMING PHARMACEUTICAL CO., LTD., priority 2020, published 2024)
Like-named read-outs stand apart in the source and are kept apart here.

Key:
HCT116 MTAP^−/− cells = test: Cell proliferation inhibition test (Cell-Titer Glo), HCT116 MTAP−/−; type: cell-based, human; conditions: Homo sapiens, HCT-116, 144 h, 6 days, read-out: HCT116 MTAP−/− Antiproliferative activity IC50
Procedure: (§1) Test Example 3. Cell Proliferation Inhibition Test of Human Colon Cancer HCT116 WT Cells and HCT116 MTAP-1-Cells
(§2) The brief introduction of the test principle: After the test MAT2A inhibitor was incubated with cancer cells for a period of time, the effect of the test compound on cell proliferation was measured using a cell proliferation count method based on the ATP content.
(§3) Reference: The experiment referred to the method disclosed in patent WO2018045071.
(§4) Material and cell: HCT116 WT cells and HCT116 MTAP^−/− cells were purchased from KYinno; fetal bovine serum, McCoy's 5a culture medium, and penicillin-streptomycin were purchased from Gibco Company (U.S.), 96-well plates were purchased from Corning Company (U.S.), and the Cell-Titer Glo reagent was purchased from Promega Company (U.S.).
(§5) Cell culture: HCT116 WT cells and HCT116 MTAP^−/− cells were cultured with a McCoy's 5a medium containing 10% fetal bovine serum+1% penicillin-streptomycin at 37° C. with 5% CO2.
(§6) Cells at logarithmic growth phase were available for the experiment.
(§7) Cell proliferation activity test: The Cell-Titer Glo reagent was used to test the compound for inhibitory activity on proliferation of both HCT116 WT and HCT116 MTAP^−/− cell strains. The cells were adjusted to a concentration of 400 cells per well, seeded on a 96-well plate, and incubated overnight at 37° C. with 5% CO2.
(§8) In the experimental group, the test compound was diluted sequentially with DMSO and a culture medium, and transferred to a cell plate at a final concentration of 10 μM, 3-fold dilution. The cells were continuously cultured at 37° C. with 5% CO2 for 6 days. The Cell-Titer Glo reagent was added and the cell activity was measured.
(§9) A negative control group and a positive control group were respectively used as Bottom and Top. The negative control group was not added with cells, only added with the culture medium in the same volume, and other operations were consistent with those of the experimental group. The positive control group was not added with the test compound, only added with DMSO in the same volume, and other operations were consistent with those of the experimental group.
(§10) The % Compound inhibition was calculated and fitted to give the IC50 of the compound.
(§11) % Compound inhibition=1-100%×(Signal−Bottom)/(Top−Bottom).
(§12) Signal referred to the signal value of the experimental group, Bottom referred to the average signal value of the negative control group, and Top referred to the average signal value of the positive control group.
(§13) HCT116 MTAP^−/− cells are cells not expressing MTAP protein obtained by site-directed knockout of wild type HCT116 (HCT116 WT) cells by gene knockout. Synthetic lethality will occur due to MAT2A inhibition and the deletion of MTAP, thereby causing tumor cell death. The activity and selectivity of the MAT2A inhibitor can be evaluated by testing the antiproliferative activity of the MAT2A inhibitor on human colon cancer HCT116 MTAP^−/− cells and human colon cancer HCT116 WT.

HCT116 WT cells = test: Cell proliferation inhibition test (Cell-Titer Glo), HCT116 WT; type: cell-based, human; conditions: Homo sapiens, HCT-116, 144 h, 6 days, read-out: HCT116 WT Antiproliferative activity IC50
Procedure: as §1, §2, §3, §4, §5, §6, §7, §8, §9, §10, §11, §12, §13

MAT2A = MAT2A (Homo sapiens (Human), UniProt P31153); test: MAT2A biochemical test (inorganic phosphate colorimetric, PiColorLock); conditions: read-out: MAT2A inhibitory Activity IC50
Sequence of MAT2A (P31153 whole entry): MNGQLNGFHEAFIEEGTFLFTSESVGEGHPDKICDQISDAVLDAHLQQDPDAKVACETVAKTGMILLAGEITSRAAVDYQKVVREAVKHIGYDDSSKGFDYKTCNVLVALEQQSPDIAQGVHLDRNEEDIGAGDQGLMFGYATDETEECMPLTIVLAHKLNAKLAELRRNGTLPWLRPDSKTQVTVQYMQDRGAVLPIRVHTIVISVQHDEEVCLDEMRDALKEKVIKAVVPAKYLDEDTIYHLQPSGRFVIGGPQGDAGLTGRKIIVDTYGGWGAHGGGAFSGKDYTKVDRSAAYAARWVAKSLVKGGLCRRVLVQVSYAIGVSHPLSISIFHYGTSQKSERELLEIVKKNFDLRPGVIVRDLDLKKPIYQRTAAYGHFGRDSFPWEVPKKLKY
Summary of the method: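 Compounds tested from 10 μM top concentration in 3-fold dilutions, preincubated 120 min at room temperature with MAT2A ([…] final) in Tris/KCl/MgCl2/EDTA/BSA buffer. Reaction started with […] L-methionine and 400 μM ATP, run 90 min at room temperature; phosphate read by PiColorLock after 30 min. IC50 fitted from % inhibition versus no-enzyme and DMSO controls.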

SMILES | IC50 (HCT116 MTAP^−/− cells) [nM] | IC50 (HCT116 WT cells) [nM] | IC50 (MAT2A; class symbols) [nM] | IC50 (MAT2A; numeric values) [nM]
Cn1cnc2c(=O)n(-c3cccnc3C3CC3)c3cc(Cl)ccc3c21 (atropisomer, axis not shown) [Compound 49, 7-chloro-5-(2-cyclopropylpyridin-3-yl)-1-methyl-1,5-dihydro-4H-imidazo[4,5-c]quinolin-4-one] | 87.9 | 1620 | < 100 | 28.1
O=c1c2ncoc2c2ccc(C(F)(F)F)nc2n1-c1cccnc1C1CC1 (atropisomer, axis not shown) [Compound 81, 5-(2-cyclopropylpyridin-3-yl)-7-(trifluoromethyl)oxazolo[4,5-c][1,8]naphthyridin-4(5H)-one] | 186 | 1940 | < 100 | 52.3
Cc1c(F)cccc1-n1c(=O)c2ncn(C)c2c2ccc(C(F)(F)F)nc21 (single isomer, unassigned) [Compound 43-P2, 5-(3-fluoro-2-methylphenyl)-1-methyl-7-(trifluoromethyl)-1,5-dihydro-4H-imidazo[4,5-c][1,8]naphthyridin-4-one] | 79 | 355 | < 100 | 28.2
Cc1ncccc1-n1c(=O)c2ncn(C)c2c2ccc(Cl)cc21 (single isomer, unassigned) [Compound 46-P2, 7-chloro-1-methyl-5-(2-methylpyridin-3-yl)-1,5-dihydro-4H-imidazo[4,5-c]quinolin-4-one] | 33 | 214 | < 100 | 19.8
Cn1cnc2c(=O)n(-c3cccnc3C(F)(F)F)c3cc(Cl)ccc3c21 (single isomer, unassigned) [Compound 47-P2, 7-chloro-1-methyl-5-(2-(trifluoromethyl)pyridin-3-yl)-1,5-dihydro-4H-imidazo[4,5-c]quinolin-4-one] | 130 | 8330 | < 100 | 23.3
COc1c(F)cccc1-n1c(=O)c2ncn(C)c2c2ccc(C(F)(F)F)nc21 (single isomer, unassigned) [Compound 70-P2, 5-(3-fluoro-2-methoxyphenyl)-1-methyl-7-(trifluoromethyl)-1,5-dihydro-4H-imidazo[4,5-c][1,8]naphthyridin-4-one] | 490 | 7940 | < 100 | 37.9
Cn1cnc2c(=O)n(-c3cccc(C#N)c3Cl)c3nc(C(F)(F)F)ccc3c21 (single isomer, unassigned) [Compound 73-P2, 2-chloro-3-(1-methyl-4-oxo-7-(trifluoromethyl)-1,4-dihydro-5H-imidazo[4,5-c][1,8]naphthyridin-5-yl)benzonitrile] | 194 | 2210 | < 100 | 27.3
Cc1ncccc1-n1c(=O)c2ncoc2c2ccc(C(F)(F)F)cc21 (single isomer, unassigned) [Compound 82-P2, 5-(2-methylpyridin-3-yl)-7-(trifluoromethyl)oxazolo[4,5-c]quinolin-4(5H)-one] | 50.2 | 271 | < 100 | 23.1
Cc1ncccc1-n1c(=O)c2ncoc2c2ccc(Cl)cc21 (single isomer, unassigned) [Compound 83-P2, 7-chloro-5-(2-methylpyridin-3-yl)oxazolo[4,5-c]quinolin-4(5H)-one] | 54.3 | 203 | < 100 | 23.1
COc1nc2c(=O)n(-c3ccccc3Cl)c3nc(C(F)(F)F)ccc3c2[nH]1 [Compound 5, 5-(2-chlorophenyl)-2-methoxy-7-(trifluoromethyl)-1,5-dihydro-4H-imidazo[4,5-c][1,8]naphthyridin-4-one] | 274 | > 10000 | < 100 | 41.6
O=c1c2[nH]ncc2c2ccc(C(F)(F)F)nc2n1-c1ccccc1Cl [Compound 6, 5-(2-chlorophenyl)-7-(trifluoromethyl)-3,5-dihydro-4H-pyrazolo[3,4-c][1,8]naphthyridin-4-one] | 288 | 1110 | < 100 | 50.1
O=c1c2nc(C(F)(F)F)[nH]c2c2ccc(C(F)(F)F)nc2n1-c1ccccc1Cl [Compound 9, 5-(2-chlorophenyl)-2,7-bis(trifluoromethyl)-1,5-dihydro-4H-imidazo[4,5-c][1,8]naphthyridin-4-one] | 426 | 4180 | < 100 | 29.6
O=c1c2ncoc2c2ccc(C(F)(F)F)nc2n1-c1cccc(F)c1Cl [Compound 35, 5-(2-chloro-3-fluorophenyl)-7-(trifluoromethyl)oxazolo[4,5-c][1,8]naphthyridin-4(5H)-one] | 238 | 1210 | < 100 | 49
Cc1ccc2c3c(ncn3C)c(=O)n(-c3cccc(F)c3Cl)c2n1 [Compound 38, 5-(2-chloro-3-fluorophenyl)-1,7-dimethyl-1,5-dihydro-4H-imidazo[4,5-c][1,8]naphthyridin-4-one] | 130 | 605 | < 100 | 82
[2H]C([2H])([2H])n1cnc2c(=O)n(-c3cccc(F)c3Cl)c3nc(C(F)(F)F)ccc3c21 [Compound 44, 5-(2-chloro-3-fluorophenyl)-1-(methyl-d3)-7-(trifluoromethyl)-1,5-dihydro-4H-imidazo[4,5-c][1,8]naphthyridin-4-one] | 71.5 | 667 | < 100 | 49.5
Cn1cnc2c(=O)n(-c3cccnc3)c3nc(C(F)(F)F)ccc3c21 [Compound 64, 1-methyl-5-(pyridin-3-yl)-7-(trifluoromethyl)-1,5-dihydro-4H-imidazo[4,5-c][1,8]naphthyridin-4-one] | 398 | 1050 | < 100 | 
Cn1cnc2c(=O)n(-c3cccc(F)c3Cl)c3nc(C(F)(F)F)ncc3c21 [Compound 65, 5-(2-chloro-3-fluorophenyl)-1-methyl-7-(trifluoromethyl)-1,5-dihydro-4H-imidazo[4′,5′:4,5]pyrido[2,3-d]pyrimidin-4-one] | 188 | 859 | < 100 | 78.3
COc1ncccc1-n1c(=O)c2ncn(C)c2c2ccc(C(F)(F)F)nc21 [Compound 68, 5-(2-methoxypyridin-3-yl)-1-methyl-7-(trifluoromethyl)-1,5-dihydro-4H-imidazo[4,5-c][1,8]naphthyridin-4-one] | 394 | > 10000 | < 100 | 53.5
[2H]C([2H])([2H])n1cnc2c(=O)n(-c3cccnc3C)c3nc(C(F)(F)F)ccc3c21 [Compound 72, 1-(methyl-d3)-5-(2-methylpyridin-3-yl)-7-(trifluoromethyl)-1,5-dihydro-4H-imidazo[4,5-c][1,8]naphthyridin-4-one] | 191 | 970 | < 100 | 52.1
